Results as given in patent US6472348B1, “Pyridone derivatives and herbicides” (Kumiai Chemical Industry Co., Ltd., priority 1996, dated 2002).

Columns and labels:
pale smartweed (Po) [1] = assay: Test Example 9: crop plant selectivity by upland field foliage treatment (wheat), herbicidal effects; type: in vivo; design: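 grade of growth control; 5 = at least 90%; 4 = 70 to 90%; 3 = 50 to 70%; 2 = 30 to 50%; 1 = 10 to 30%; 0 = under 10%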; settings: dose 1.6 g ai/10a, 14th day after treatment
Summary of the method: (§1)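 Read-out: weed control and wheat injury, rated by a defined scoring standard 14 days after foliar application.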

China jute (Ab) [2] = assay: as above; type: in vivo; design: scale not given here; settings: dose 1.6 g ai/10a, 14th day after treatment
Summary of the method: as §1

slender amaranth (Am) [3] = assay: as above; type: in vivo; design: scale not given here; settings: dose 1.6 g ai/10a, 14th day after treatment
Summary of the method: as §1

[4] = test system: common lambsquarters (Ch); assay: as above; type: in vivo; design: scale not given here; settings: dose 1.6 g ai/10a, 14th day after treatment
Summary of the method: as §1

wheat (Tr) = assay: Test Example 9: crop plant selectivity by upland field foliage treatment (wheat), phytotoxicity; settings: dose 1.6 g ai/10a, 14th day after treatment;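 note: grade of crop injury; 5 = at least 90%; 4 = 70 to 90%; 3 = 50 to 70%; 2 = 30 to 50%; 1 = 10 to 30%; 0 = under 10%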
Summary of the method: as §1

corn (Ze) = assay: Test Example 11: crop plant selectivity by upland field foliage treatment (corn), phytotoxicity; settings: dose 1.6 g ai/10a
Method: (§2) (Test on Crop Plant Selectivity by Upland Field Foliage Treatment)
(§3) In a plastic pot (surface area: 600 cm^2) filled with sand, corn (Ze), pale smartweed (Po), slender amaranth (Am), common lambsquarters (Ch) and China jute (Ab) were sown and cultured in a green house for 2 weeks. […] The plants were then cultured in a green house, and the evaluation of the herbicidal effects and phytotoxicity was conducted on the 14th day after the treatment in accordance with the standards as identified in Table 47.

pale smartweed (Po) [5] = assay: Test Example 3: herbicidal effects by upland field foliage treatment; type: in vivo; design: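 grade of growth control; 5 = at least 90%; 4 = 70 to 90%; 3 = 50 to 70%; 2 = 30 to 50%; 1 = 10 to 30%; 0 = under 10%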
Summary of the method: (§4)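 Scoring used a standard effect scale on the 14th day post-treatment, with plants held in a greenhouse throughout. Foliar application was made to weeds raised from seed in sand-filled pots for 2 weeks.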

barnyardgrass (Ec) [6] = assay: as above; type: in vivo; design: scale not given here
Summary of the method: as §4

rice flatsedge (Ci) [7] = assay: as above; type: in vivo; design: scale not given here
Summary of the method: as §4

Diaitaria ciliaris (Di) = assay: as above; type: in vivo; design: scale not given here
Summary of the method: as §4

slender amaranth (Am) [8] = assay: as above; type: in vivo; design: scale not given here
Summary of the method: as §4

[9] = test system: common lambsquarters (Ch); assay: as above; type: in vivo; design: scale not given here
Summary of the method: as §4

pale smartweed (Po) [10] = assay: Test Example 11: crop plant selectivity by upland field foliage treatment (corn), herbicidal effects; type: in vivo; design: scale not given here; settings: dose 1.6 g ai/10a
Method: as §2, §3

China jute (Ab) [11] = assay: as above; type: in vivo; design: scale not given here; settings: dose 1.6 g ai/10a
Method: as §2, §3

slender amaranth (Am) [12] = assay: as above; type: in vivo; design: scale not given here; settings: dose 1.6 g ai/10a
Method: as §2, §3

[13] = test system: common lambsquarters (Ch); assay: as above; type: in vivo; design: scale not given here; settings: dose 1.6 g ai/10a
Method: as §2, §3

pale smartweed (Po) [14] = assay: Test Example 2: herbicidal effects by upland field soil treatment; type: in vivo; settings: 100 g of the active ingredient per 10 ares;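 note: grade of growth control; 5 = at least 90%; 4 = 70 to 90%; 3 = 50 to 70%; 2 = 30 to 50%; 1 = 10 to 30%; 0 = under 10%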
From the text: (§5) (Test on Herbicidal Effects by Upland Field Soil Treatment)

barnyardgrass (Ec) [15] = assay: as above; type: in vivo; settings: 100 g of the active ingredient per 10 ares
From the text: as §5

Digitaria ciliaris (Di) = assay: as above; type: in vivo; settings: 100 g of the active ingredient per 10 ares;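 note: grade of growth control; 5 = at least 90%; 4 = 70 to 90%; 3 = 50 to 70%; 2 = 30 to 50%; 1 = 10 to 30%; 0 = under 10%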
From the text: as §5

rice flatsedge (Ci) [16] = assay: as above; type: in vivo; settings: 100 g of the active ingredient per 10 ares
From the text: as §5

slender amaranth (Am) [17] = assay: as above; type: in vivo; settings: 100 g of the active ingredient per 10 ares
From the text: as §5

[18] = test system: common lambsquarters (Ch); assay: as above; type: in vivo; settings: 100 g of the active ingredient per 10 ares
From the text: as §5

barnyardgrass (Ec) [19] = assay: Test Example 1: herbicidal effects by paddy field soil treatment; type: in vivo; settings: 100 g of the active ingredient per 10 ares, 21st day after the application, index 0-5 of Table 47;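 note: grade of growth control; 5 = at least 90%; 4 = 70 to 90%; 3 = 50 to 70%; 2 = 30 to 50%; 1 = 10 to 30%; 0 = under 10%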
Summary of the method: (§6)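 Flooded paddy-soil pots (3 cm water) sown after puddling/leveling; treatment 100 g a.i./10 ares; greenhouse culture; herbicidal effect rated visually on a scoring scale at 21 d post-application.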

bulrush (Sc) = assay: as above; type: in vivo; settings: 100 g of the active ingredient per 10 ares, 21st day after the application, index 0-5 of Table 47
Summary of the method: as §6

monochoria (Mo) = assay: as above; type: in vivo; settings: 100 g of the active ingredient per 10 ares, 21st day after the application, index 0-5 of Table 47
Summary of the method: as §6

[20] = upland field foliage treatment, 14th day after treatment
[21] = 100 g of the active ingredient per 10 ares, evaluated on the 14th day after treatment
[22] = upland field foliage treatment (corn test), 14th day after treatment
[23] = 21st day after the application, index 0-5 of Table 47
[24] = evaluated on the 21st day after application
[25] = 100 g active ingredient per 10 ares, evaluated 14th day after treatment
[26] = corn, foliage treatment, evaluated on 14th day after treatment, index per Table 47
[27] = pale smartweed, foliage treatment, evaluated on 14th day after treatment, index per Table 47
[28] = China jute, foliage treatment, evaluated on 14th day after treatment, index per Table 47
[29] = slender amaranth, foliage treatment, evaluated on 14th day after treatment, index per Table 47
[30] = common lambsquarters, foliage treatment, evaluated on 14th day after treatment, index per Table 47

| Structure (SMILES) | Herbicidal effects Po (pale smartweed (Po) [1]) | Herbicidal effects Ab (China jute (Ab) [2]) | Herbicidal effects Am (slender amaranth (Am) [3]) | Herbicidal effects Ch [4] | Phytotoxicity Tr (wheat (Tr)) | Phytotoxicity Ze (corn (Ze); [20]) | Herbicidal effects Po (pale smartweed (Po) [5]; [21]) | Herbicidal effects Ec (barnyardgrass (Ec) [6]; [21]) | Herbicidal effects Ci (rice flatsedge (Ci) [7]; [21]) | Herbicidal effects Di (Diaitaria ciliaris (Di); [21]) | Herbicidal effects Am (slender amaranth (Am) [8]; [21]) | Herbicidal effects Ch [9, 21] | Herbicidal effects Po (pale smartweed (Po) [10]; [22]) | Herbicidal effects Ab (China jute (Ab) [11]; [22]) | Herbicidal effects Am (slender amaranth (Am) [12]; [22]) | Herbicidal effects Ch [13, 22] | Herbicidal effects Po (pale smartweed (Po) [14]; [23]) | Herbicidal effects Ec (barnyardgrass (Ec) [19]) | Herbicidal effects Sc (bulrush (Sc)) | Herbicidal effects Mo (monochoria (Mo)) | other results |
| --- | --- | --- | --- | --- | --- | --- | --- | --- | --- | --- | --- | --- | --- | --- | --- | --- | --- | --- | --- | --- | --- |
| CCOC(=O)C(CC)Sc1cc(-c2ccc(C(F)(F)F)n(C)c2=O)c(Cl)cc1Cl (racemic) [1-125] | 5 | 5 | 5 | 5 | 2 | 2 | 5 | 5 | 5 | 5 | 5 | 5 | 5 | 5 | 5 | 5 |  |  |  |  |  |
| C#CC(C)Oc1cc(-c2ccc(C(F)(F)F)n(C)c2=O)c(Cl)cc1Cl (centres unmarked) [1-31] | 5 | 5 | 5 | 5 | 2 | 2 |  |  |  |  |  |  | 5 | 5 | 5 | 5 |  |  |  |  |  |
| COCOc1cc(-c2ccc(C(F)(F)F)n(C)c2=O)c(Cl)cc1Cl [1-38] | 5 | 5 | 5 | 5 | 2 | 2 | 5 | 5 | 5 | 5 | 5 | 5 | 5 | 5 | 5 | 5 | 5 | 5 | 5 | 5 | Herbicidal effects Ec (barnyardgrass (Ec) [15]; [23]): 5; Herbicidal effects Di (Digitaria ciliaris (Di); [23]): 5; Herbicidal effects Ci (rice flatsedge (Ci) [16]; [23]): 5; Herbicidal effects Am (slender amaranth (Am) [17]; [23]): 5; Herbicidal effects Ch [18, 23]: 5 |
| C#CCNc1cc(-c2ccc(C(F)(F)F)n(C)c2=O)c(F)cc1Cl [1-62] | 5 | 5 | 5 | 5 | 2 | 2 | 5 | 5 | 5 | 5 | 5 | 5 | 5 | 5 | 5 | 5 | 5 | 5 | 5 | 5 | Herbicidal effects Ec (barnyardgrass (Ec) [15]; [23]): 5; Herbicidal effects Di (Digitaria ciliaris (Di); [23]): 5; Herbicidal effects Ci (rice flatsedge (Ci) [16]; [23]): 5; Herbicidal effects Am (slender amaranth (Am) [17]; [23]): 5; Herbicidal effects Ch [18, 23]: 5 |
| C#CCOc1cc(-c2ccc(C(F)(F)F)n(C)c2=O)ccc1Cl [1-106] | 5 | 5 | 5 | 5 | 2 | 2 | 5 | 5 | 5 | 5 | 5 | 5 | 5 | 5 | 5 | 5 | 5 | 5 | 5 | 5 | Herbicidal effects Ec (barnyardgrass (Ec) [15]; [23]): 5; Herbicidal effects Di (Digitaria ciliaris (Di); [23]): 5; Herbicidal effects Ci (rice flatsedge (Ci) [16]; [23]): 5; Herbicidal effects Am (slender amaranth (Am) [17]; [23]): 5; Herbicidal effects Ch [18, 23]: 5 |
| Cn1c(C(F)(F)F)ccc(-c2cc(C(=O)OCCBr)c(Cl)cc2F)c1=O [1-134] | 5 | 5 | 5 | 5 | 2 | 2 | 5 | 5 | 5 | 5 | 5 | 5 | 5 | 5 | 5 | 5 | 5 | 5 | 5 | 5 | Herbicidal effects Ec (barnyardgrass (Ec) [15]; [23]): 5; Herbicidal effects Di (Digitaria ciliaris (Di); [23]): 5; Herbicidal effects Ci (rice flatsedge (Ci) [16]; [23]): 5; Herbicidal effects Am (slender amaranth (Am) [17]; [23]): 5; Herbicidal effects Ch [18, 23]: 5 |
| Cn1c(C(F)(F)F)ccc(-c2cc(OC3CCOC3)c(Cl)cc2F)c1=O (centres unmarked) [1-162] | 5 | 5 | 5 | 5 | 2 | 2 | 5 | 5 | 5 | 5 | 5 | 5 | 5 | 5 | 5 | 5 | 5 | 5 | 5 | 5 | Herbicidal effects Ec (barnyardgrass (Ec) [15]; [23]): 5; Herbicidal effects Di (Digitaria ciliaris (Di); [23]): 5; Herbicidal effects Ci (rice flatsedge (Ci) [16]; [23]): 5; Herbicidal effects Am (slender amaranth (Am) [17]; [23]): 5; Herbicidal effects Ch [18, 23]: 5 |
| Cn1c(C(F)(F)F)ccc(-c2cc3c(cc2F)OCC(=O)N3CC#N)c1=O [Compound 2-17] |  |  |  |  |  | 2 |  |  |  |  |  |  | 5 | 5 | 5 | 5 |  | 5 | 5 | 5 | Herbicidal effects Po (pale smartweed (Po) [14]; [24]): 5; Herbicidal effects Ec (barnyardgrass (Ec) [15]; [24]): 5; Herbicidal effects Di (Digitaria ciliaris (Di); [24]): 5; Herbicidal effects Ci (rice flatsedge (Ci) [16]; [24]): 5; Herbicidal effects Am (slender amaranth (Am) [17]; [24]): 5; Herbicidal effects Ch [18, 24]: 5; Herbicidal effects Po (pale smartweed (Po) [5]; [25]): 5; Herbicidal effects Ec (barnyardgrass (Ec) [6]; [25]): 5; Herbicidal effects Ci (rice flatsedge (Ci) [7]; [25]): 5; Herbicidal effects Di (Diaitaria ciliaris (Di); [25]): 5; Herbicidal effects Am (slender amaranth (Am) [8]; [25]): 5; Herbicidal effects Ch [9, 25]: 5 |
| CCOC(=O)CN1C(=O)COc2cc(F)c(-c3ccc(C(F)(F)F)n(C)c3=O)cc21 [Compound 2-18] | 5 | 5 | 5 | 5 | 2 | 2 |  |  |  |  |  |  | 5 | 5 | 5 | 5 |  | 5 | 5 | 5 |  |
| CC(C)OCc1cc2c(-c3ccc(C(F)(F)F)n(C)c3=O)c(F)cc(Cl)c2o1 [Compound 4-33] | 5 | 5 | 5 | 5 | 2 |  |  |  |  |  |  |  |  |  |  |  |  | 5 | 5 | 5 | Phytotoxicity Ze (corn (Ze); [26]): 2; Herbicidal effects Po (pale smartweed (Po) [5]; [25]): 5; Herbicidal effects Ec (barnyardgrass (Ec) [6]; [25]): 5; Herbicidal effects Ci (rice flatsedge (Ci) [7]; [25]): 5; Herbicidal effects Di (Diaitaria ciliaris (Di); [25]): 5; Herbicidal effects Am (slender amaranth (Am) [8]; [25]): 5; Herbicidal effects Ch [9, 25]: 5; Herbicidal effects Po (pale smartweed (Po) [10]; [27]): 5; Herbicidal effects Ab (China jute (Ab) [11]; [28]): 5; Herbicidal effects Am (slender amaranth (Am) [12]; [29]): 5; Herbicidal effects Ch [13, 30]: 5 |
| CCC(Br)c1cc2c(-c3ccc(C(F)(F)F)n(C)c3=O)c(F)cc(Cl)c2o1 (centres unmarked) [Compound 4-38] | 5 | 5 | 5 | 5 | 2 |  |  |  |  |  |  |  |  |  |  |  |  |  |  |  | Phytotoxicity Ze (corn (Ze); [26]): 2; Herbicidal effects Po (pale smartweed (Po) [10]; [27]): 5; Herbicidal effects Ab (China jute (Ab) [11]; [28]): 5; Herbicidal effects Am (slender amaranth (Am) [12]; [29]): 5; Herbicidal effects Ch [13, 30]: 5 |
| CC(C)OC(=O)c1cc(-c2ccc(C(F)(F)F)n(C)c2=O)c(F)cc1Cl [Compound No. 1-66, isopropyl 5-(1-methyl-6-trifluoromethyl-2(1H)-pyridon-3-yl)-2-chloro-4-fluorobenzoate] |  |  |  |  |  | 2 | 5 | 5 | 5 | 5 | 5 | 5 | 5 | 5 | 5 | 5 | 5 | 5 | 5 | 5 | Herbicidal effects Ec (barnyardgrass (Ec) [15]; [23]): 5; Herbicidal effects Di (Digitaria ciliaris (Di); [23]): 5; Herbicidal effects Ci (rice flatsedge (Ci) [16]; [23]): 5; Herbicidal effects Am (slender amaranth (Am) [17]; [23]): 5; Herbicidal effects Ch [18, 23]: 5 |
